According to patent US8168651B2, “Protein kinase modulators” (Cylene Pharmaceuticals, Inc., priority 2008, dated 2012):
Like-named read-outs stand apart in the source and are kept apart here. Each block holds one compound with its values, some of them ahead of it.

Assays:
Jurkat = test: Cell proliferation modulatory activity, Jurkat; type: cell-based; conditions: Homo sapiens
recombinant human PIM1 = recombinant human PIM1 (Homo sapiens (Human), UniProt P11309); test: PIM-1 kinase activity in cell-free in vitro assay; type: biochemical; conditions: for inhibition at 0.5 µM: 500 nM compound, read-out: PIM-1: % inh 500 nM
[1] = tested on: HCT-116 human colorectal carcinoma cells; test: Cell-proliferation assay using Alamar Blue dye; type: cell-based; conditions: Homo sapiens;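 further: cells exposed to compound for about 4 days, then Alamar Blue added and dye fluorescence read after about 4 h, compared with medium-only control wells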
MV-4-11 = test: Cell proliferation modulatory activity, MV-4-11; type: cell-based; conditions: Homo sapiens, MV4-11
K-562 [2] = test: Cell proliferation modulatory activity, K-562; type: cell-based; conditions: Homo sapiens, K562
MDA MB231 = MDA MB231 IC50 (Table 46); type: cell-based; conditions: Homo sapiens, MDA-MB-231
MV-411 = MV-411 IC50 (Table 46); type: cell-based; conditions: Homo sapiens, MV4-11
[3] = tested on: PC-3 human prostatic cancer cells; test: Cell-proliferation assay using Alamar Blue dye; type: cell-based; conditions: read-out: PC3 IC50
Method: (§1) A representative cell-proliferation assay protocol using Alamar Blue dye (stored at 4° C., use 20 ul per well) is described hereafter.
(§2) • a. Split and trypsinize cells. • b. Count cells using hemocytometer. • c. Plate 4,000-5,000 cells per well in 100 μl of medium and seed into a 96-well plate according to the following plate layout. Add cell culture medium only to wells B10 to B12. Wells B1 to B9 have cells but no compound added.
(§3) • d. Add 100 μl of 2× drug dilution to each well in a concentration shown in the plate layout above. At the same time, add 100 μl of media into the control wells (wells B10 to B12). Total volume is 200 μl/well. • e. Incubate four (4) days at 37° C., 5% CO2 in a humidified incubator. • f. Add 20 μl Alamar Blue reagent to each well. • g. Incubate for four (4) hours at 37° C., 5% CO2 in a humidified incubator. • h. Record fluorescence at an excitation wavelength of 544 nm and emission wavelength of 590 nm using a microplate reader.
(§4) In the assays, cells are cultured with a test compound for approximately four days, the dye then is added to the cells and fluorescence of […] dye is detected after approximately four hours. Different types of cells can be utilized in the assays (e.g., HCT-116 human colorectal carcinoma cells, PC-3 human prostatic cancer cells and MiaPaca human pancreatic carcinoma cells). Anti-proliferative effects of representative compounds are provided hereafter

K-562 [4] = test: K-562 IC50 (Table 46); type: cell-based; conditions: Homo sapiens, K562
[5] = tested on: MiaPaca human pancreatic carcinoma cells; test: Cell-proliferation assay using Alamar Blue dye; type: cell-based; conditions: MIA PaCa-2
Method: as §1, §2, §3, §4

PARP-HSA enzyme = PARP-HSA enzyme (Homo sapiens (Human), UniProt P09874); test: PARP assay (chemiluminescent PARP assay kit, Trevigen); type: biochemical; conditions: for IC50: read-out: PARP Inhibition IC50; for PARP Inhibition: at 1 μM
Method: Modulatory activity of compounds described herein was assessed in vitro in cell-free CK2 assays. Modulatory activity of compounds described herein also are assessed in vitro in cell-free PARP assays. These assays are described hereafter.
PARP assays are conducted using a chemiluminescent PARP assay kit (Trevigen). Briefly, reactions are performed in Histone-coated strip wells, by adding 10 microliters test compound dissolved in 1×PARP Buffer (prepared by mixing 20×PARP buffer diluted with high-purity water) and 15 microliters diluted PARP-HSA enzyme (diluted in 1×PARP buffer, 0.1 unit per well) to 25 microliters PARP cocktail (prepared from 10×PARP cocktail and 10× activated DNA, both 2.5 microliters per well and 20 microliters per well of 1×PARP buffer). The reactions are incubated at ambient temperature for 60 minutes, then the liquid was removed. After washing the wells four times with PBS (200 ul), 50 microliters of STREP-HRP (Horseradish Peroxidase) solution (diluted 500-fold in 1× Strep-Diluent) was added and the reactions were allowed to incubate for 30 minutes at ambient temperature. The liquid was removed and, after washing the wells four times with PBS (200 ul), 50 microliters each of PeroxyGlo A and B (Chemiluminescent Horseradish Peroxidase substrates) are added and the resulting chemiluminescence quantified on the SpectraMax M5 plate reader.

recombinant human CK2 = recombinant human CK2 (Homo sapiens (Human), UniProt P68400); test: CK2 assay (cell-free, 33P-ATP filter plate); type: biochemical
[6] = Pharmacokinetics after IV and PO dose in ICR mice; type: in vivo; conditions: for half-life: mouse, plasma
Method: […] Blood samples were collected at predetermined times and the plasma separated. Plasma was separated from the blood samples collected at 5, 15 and 30 minutes and 1, 2, 4, 8 and 24 hours post-dose.
Drug levels were quantified by the LC/MS/MS method described below. Noncompartmental pharmacokinetic analysis was applied for intravenous administration. A linear trapezoidal rule was used to compute AUC(0-24). The terminal t1/2 and C0 were calculated using the last three and the first three data points, respectively
Bioanalysis was performed using a Quattro Micro LC/MS/MS instrument in the MRM detection mode, with an internal standard (IS). Briefly, 15 µL plasma samples were prepared for analysis using protein precipitation with 120 μL of acetonitrile. The supernatants were transferred into a 96 well plate and subjected to LC-MS/MS analysis using a Phenomenex Polar-RP HPLC column. The mobile phases were 10 mM NH4HCO3 in water (Solution-A) and 10 mM NH4HCO3 in methanol (Solution-B). […] Quantitation of the analytes was performed in the batch mode with two bracketing calibration curves according to the bioanalytical sample list.

[7] = HCT-116, HCT-116, second column, read-out: HCT-116 (uM), cell proliferation modulatory activity

Chain of recombinant human PIM1 (P11309 whole entry): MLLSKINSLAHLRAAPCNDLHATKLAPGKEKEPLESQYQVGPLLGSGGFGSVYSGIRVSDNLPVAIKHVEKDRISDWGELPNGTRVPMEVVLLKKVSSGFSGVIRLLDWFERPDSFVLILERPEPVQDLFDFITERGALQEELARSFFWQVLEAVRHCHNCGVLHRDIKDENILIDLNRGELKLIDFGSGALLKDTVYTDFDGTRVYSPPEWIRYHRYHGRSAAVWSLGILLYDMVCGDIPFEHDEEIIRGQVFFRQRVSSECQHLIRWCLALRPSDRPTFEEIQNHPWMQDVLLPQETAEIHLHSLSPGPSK
Chain of PARP-HSA enzyme (P09874 whole entry): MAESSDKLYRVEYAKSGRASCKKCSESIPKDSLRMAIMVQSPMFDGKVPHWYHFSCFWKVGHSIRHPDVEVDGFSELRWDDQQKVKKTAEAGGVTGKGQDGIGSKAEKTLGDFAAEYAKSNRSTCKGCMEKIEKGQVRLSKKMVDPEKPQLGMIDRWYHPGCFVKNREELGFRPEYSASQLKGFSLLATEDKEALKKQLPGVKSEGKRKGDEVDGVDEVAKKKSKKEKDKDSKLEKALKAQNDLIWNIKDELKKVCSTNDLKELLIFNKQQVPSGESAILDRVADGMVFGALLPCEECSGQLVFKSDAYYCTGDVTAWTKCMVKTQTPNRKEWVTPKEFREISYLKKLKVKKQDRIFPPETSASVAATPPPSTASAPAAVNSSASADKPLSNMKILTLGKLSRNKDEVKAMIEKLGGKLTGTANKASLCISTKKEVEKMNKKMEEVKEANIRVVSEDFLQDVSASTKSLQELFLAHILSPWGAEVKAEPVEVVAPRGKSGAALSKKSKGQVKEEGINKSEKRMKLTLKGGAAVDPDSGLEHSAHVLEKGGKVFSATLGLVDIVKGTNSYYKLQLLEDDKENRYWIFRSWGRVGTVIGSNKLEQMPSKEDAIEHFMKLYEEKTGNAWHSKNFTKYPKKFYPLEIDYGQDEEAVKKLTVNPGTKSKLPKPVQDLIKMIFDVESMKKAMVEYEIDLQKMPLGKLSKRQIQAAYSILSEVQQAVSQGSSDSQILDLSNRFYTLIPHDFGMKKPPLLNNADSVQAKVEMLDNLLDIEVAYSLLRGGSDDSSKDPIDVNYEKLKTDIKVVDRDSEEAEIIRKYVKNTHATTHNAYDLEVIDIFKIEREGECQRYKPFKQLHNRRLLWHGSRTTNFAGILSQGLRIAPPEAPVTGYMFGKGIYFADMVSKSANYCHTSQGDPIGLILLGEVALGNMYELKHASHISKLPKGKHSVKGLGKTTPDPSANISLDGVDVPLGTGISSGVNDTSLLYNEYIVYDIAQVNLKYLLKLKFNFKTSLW
Chain of recombinant human CK2 (P68400 whole entry): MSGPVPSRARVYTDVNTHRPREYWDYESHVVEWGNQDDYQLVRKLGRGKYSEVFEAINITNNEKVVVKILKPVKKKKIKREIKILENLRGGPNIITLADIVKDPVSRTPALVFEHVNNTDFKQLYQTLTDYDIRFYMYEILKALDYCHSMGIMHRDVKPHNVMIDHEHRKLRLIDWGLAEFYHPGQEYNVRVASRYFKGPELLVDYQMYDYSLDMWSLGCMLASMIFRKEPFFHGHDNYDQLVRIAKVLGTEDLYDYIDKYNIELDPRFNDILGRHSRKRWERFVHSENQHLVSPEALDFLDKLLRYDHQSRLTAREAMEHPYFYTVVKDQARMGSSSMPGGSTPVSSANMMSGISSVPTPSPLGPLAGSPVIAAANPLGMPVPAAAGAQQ
Chain of recombinant human CK2 (P67870 whole entry partner): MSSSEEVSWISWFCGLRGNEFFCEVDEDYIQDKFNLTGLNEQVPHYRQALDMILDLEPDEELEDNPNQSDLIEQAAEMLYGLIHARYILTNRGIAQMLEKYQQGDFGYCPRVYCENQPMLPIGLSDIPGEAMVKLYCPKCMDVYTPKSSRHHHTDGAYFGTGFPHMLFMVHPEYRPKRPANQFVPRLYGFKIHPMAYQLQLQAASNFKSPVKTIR

- IC50 (MDA MB231): 9640 nM
- IC50 (recombinant human PIM1): < 100 nM
- IC50 (MV-411): < 100 nM
- IC50 [3]: > 30000 nM
- IC50 (K-562 [4]): > 10000 nM
Compound: NCc1ccc(Nc2nc3c(-c4nnc[nH]4)cccc3c3cnccc23)cc1

- IC50 (MDA MB231): 2180 nM
- IC50 (MV-411): < 100 nM
- IC50 [3]: 12000 nM
- IC50 (K-562 [4]): < 1000 nM
Compound: CN(C)CCOc1ccc(Nc2nc3c(-c4nnc[nH]4)cccc3c3cnccc23)c(F)c1

- IC50 (MDA MB231): 2940 nM
- IC50 (MV-411): < 100 nM
- IC50 [3]: 3660 nM
- IC50 [5]: 1500 nM
- IC50 (K-562 [4]): < 1000 nM
Compound: CN1CCN(c2ccc(Nc3nc4c(-c5nnc[nH]5)cccc4c4cnccc34)c(Cl)c2)CC1

- IC50 (MDA MB231): < 1000 nM
- IC50 (recombinant human PIM1): < 100 nM
- IC50 (MV-411): < 100 nM
- IC50 [5]: < 1000 nM
- IC50 (K-562 [4]): < 500 nM
Compound: COCCOc1ccc(Nc2nc3c(-c4nnc[nH]4)cccc3c3cnccc23)c(F)c1

- IC50 (MDA MB231): 2730 nM
- IC50 (recombinant human PIM1): < 100 nM
- IC50 (MV-411): < 100 nM
- IC50 [3]: 1510 nM
- IC50 (K-562 [4]): 2660 nM
Compound: CS(=O)(=O)c1ccc(Nc2nc3c(-c4nnc[nH]4)cccc3c3cnccc23)c(Cl)c1

- IC50 (MDA MB231): > 10000 nM
- IC50 (recombinant human PIM1): < 100 nM
- IC50 (MV-411): < 100 nM
- IC50 [3]: > 30000 nM
- IC50 [5]: > 10000 nM
- IC50 (K-562 [4]): > 10000 nM
Compound: CCOC(=O)c1ccc(Nc2nc3c(-c4nnc[nH]4)cccc3c3cnccc23)c(Cl)c1

- IC50 (MDA MB231): 2380 nM
- IC50 (recombinant human PIM1): < 100 nM
- IC50 (MV-411): > 10000 nM
- IC50 [3]: < 500 nM
- IC50 [5]: < 1000 nM
- IC50 (K-562 [4]): < 500 nM
Compound: Oc1ccc(Nc2nc3c(-c4nnc[nH]4)cccc3c3cnccc23)c(Cl)c1

Continued, compound first:

Compound: O=C(O)c1ccc2c(c1)nc(Nc1ccc(Cl)cc1)c1ccncc12
- IC50 (Jurkat): 2.52 µM
- inhibition at 0.5 µM (recombinant human PIM1; cell-free): 83%
- IC50 (recombinant human PIM1; cell-free): 284 nM
- IC50 ([1]; HCT-116, read-out: HCT-116 (uM), cell proliferation modulatory activity, HCT-116, second column): 6.72 µM
- IC50 (MV-4-11): 1.56 µM
- IC50 (K-562 [2]): 8.65 µM

Compound: O=C(O)c1ccc2c(c1)nc(OCCCO)c1ccccc12 [drawing 559]
- IC50 (PARP-HSA enzyme): 400 nM
- inhibition at 5 µM (recombinant human CK2; at 5 μM, read-out: CK2 Inhibition): 38%

Compound: COC(=O)c1ccc2c(c1)[nH]c(=O)c1ccncc12 [drawing 562]
- IC50 (PARP-HSA enzyme): 800 nM

Compound: CN(C)CCNc1nc2cc(C(=O)O)ccc2c2ccccc12 [drawing 563]
- PARP Inhibition (PARP-HSA enzyme): 15% (at 1 μM)

Compound: O=C(O)c1ccc2c(c1)nc(Nc1ccccc1)c1ccccc12 [drawing 564]
- PARP Inhibition (PARP-HSA enzyme): 9% (at 1 μM)

Compound: COC(=O)c1ccc2c(c1)nc(Cl)c1ccsc12 [drawing 695]
- PARP % inhib @ 1 uM (PARP-HSA enzyme; 1 uM): 18%
- inhibition at 10 µM (recombinant human CK2; 10 uM, read-out: CK2 % inhib @ 10 uM): 18%

Compound: C#Cc1cccc(Nc2nc3cc(C(=O)O)ccc3c3cncnc23)c1 [drawing 1129]
- F(0-24 h) ([6]; PO 24.5 mg/kg): 26.5%
- F(0-Inf) ([6]; PO 24.5 mg/kg): 31.1%
- Kel ([6]; PO 24.5 mg/kg): 0.0594 h⁻¹
- half-life ([6]; IV 3.4 mg/kg): 4.9 h
- half-life ([6]; PO 24.5 mg/kg): 11.7 h

Compound: O=C(O)c1ccc2c(c1)nc(Nc1cccc(Cl)c1)c1ccncc12 [drawing 1512]
- IC50 (Jurkat): 3.42 µM
- inhibition at 0.5 µM (recombinant human PIM1; cell-free): 90%
- IC50 [1, 7]: 5.09 µM
- inhibition at 0.5 µM (recombinant human CK2; 500 nM compound, cell-free, read-out: CK2: % inh 500 nM): 102%
- IC50 (MV-4-11): 1.68 µM
- IC50 (K-562 [2]): 4.39 µM

Compound: C#Cc1cccc(Nc2nc3cc(C(=O)O)ccc3c3cncnc23)c1 [drawing 1544]
- IC50 (Jurkat): 3.34 µM
- inhibition at 0.5 µM (recombinant human PIM1; cell-free): 65.9%
- IC50 (recombinant human PIM1; cell-free): 306 nM
- IC50 [1, 7]: 5.86 µM
- IC50 (MV-4-11): 0.464 µM
- IC50 (K-562 [2]): 2.48 µM

Compound: C#Cc1cccc(Nc2nc3cc(C(=O)O)ccc3c3cnccc23)c1 [drawing 1555]
- IC50 (Jurkat): 2.78 µM
- inhibition at 0.5 µM (recombinant human PIM1; cell-free): 84.1%
- IC50 (recombinant human PIM1; cell-free): 296 nM
- IC50 (MV-4-11): > 10 µM
- IC50 (K-562 [2]): 3.33 µM

Compound: CNC(=O)c1cccc2c1nc(Nc1cccc(Cl)c1)c1ccncc12 [drawing 2307]
- IC50 (MDA MB231): > 10000 nM
- IC50 (recombinant human PIM1): < 100 nM
- IC50 (MV-411): < 100 nM
- IC50 [3]: > 30000 nM
- IC50 [5]: < 500 nM
- IC50 (K-562 [4]): > 10000 nM
